Data set [1] is described as follows: Half life in iv dosed rat. Conditions: in vivo. The data set is classed as ADME, organism-based.
The nature of data set [2]: Solubility of the compound by CLND method. The data set is classed as physicochemical.
Data set [3] can be described thus: Volume of distribution at steady state in iv dosed rat. The data set is classed as ADME, organism-based. The note with it: in vivo, read-out: Vdss.
Data set [4] can be described thus: Lipophilicity, log D of the compound at pH 7.4 by chromatographic method. The format is physicochemical. Conditions: buffer.
Data set [5] is described as follows: Clearance in iv dosed rat. The data set is classed as ADME, organism-based. Conditions: in vivo.
Data set [6] in a line: Dissociation constant, pKa of compound. The data set is classed as physicochemical.
Data set [7] is described as follows: Stability in minipig Hepatocyte assessed as clearance. The data set is classed as ADME, cell-based, Sus scrofa. The note with it: pig, hepatocytes; read-out: CLH.
Data set [8] in a line: Permeability of the compound by PAMPA. The format is ADME. The note with it: read-out: permeability.
Data set [9] is described as follows: Unbound clearance in iv dosed rat. The data set is classed as ADME, organism-based. Conditions: in vivo.
Data set [10] can be described thus: Stability in minipig microsomes assessed as clearance. The format is ADME, Sus scrofa, Microsome. The note with it: pig.

One may read the half-life as the time needed for the level to fall by half in the phase considered. A high value points to slow loss. The term kinetic solubility denotes the concentration staying in solution when a stock, usually in DMSO, is diluted into the medium. In general, chromatographic logD refers to a lipophilicity value derived from retention on a column. A low value points to lower lipophilicity. The clearance is the volume of plasma or blood freed of the substance per unit of time. A word on the pKa: it is the pH at which an ionisable group is half protonated. A low value points to a group that gives up its proton readily. As for `COc1ncc2cc1NS(=O)(=O)CCN(C)Cc1ccc3c(c1)N2CCO3`, the half-life in [1] is 1.5 h. Besides, the kinetic solubility in data set [2] is ≥ 331 µM. Besides, in [3], the Vd worked out at 1.8 L/kg. Besides, the chromatographic logD in data set [4] amounted to 4.3. Besides, the clearance in data set [5] came out at 12.3 mL/min/kg. The compound further gave a pKa in [6] of 5.7. Further, the CLint scaled in data set [7] was < 0.89 mL/min/kg; in data set [10] it was 0.92 mL/min/kg. Also, in data set [8], the Papp came out at 53 ×10⁻⁶ cm/s. Moreover, in data set [9], the CL free was determined as 192 mL/min/kg.
In data set [1], `COc1ncc(N2CCOc3ccc(CN(C)C)cc32)cc1NS(C)(=O)=O` had a half-life of 0.6 h. In addition, in [2], the kinetic solubility is ≥ 406 µM. Moreover, the Vd in data set [3] was 8.5 L/kg. In data set [4], the chromatographic logD was determined as 1.6. Besides, the clearance in data set [5] is 233 mL/min/kg. The compound also showed a pKa in data set [6] of 9.4. In addition, the CLint scaled in data set [7] was < 0.89 mL/min/kg; in data set [10] it was 1.63 mL/min/kg. For the same compound, the Papp in [8] is 14 ×10⁻⁶ cm/s. Moreover, in data set [9], the CL free was found to be 587 mL/min/kg.
